Entries after “also recorded” stand apart in the source; their conditions may differ. Blank lines part the entries; values can stand above or below the compound they belong to.
Columns and labels:
rats = details: systemic administration; cited from earlier work
[1] = in vivo; cited from earlier work
[2] = Gravimetric Vapour Sorption (GVS); format: physicochemical
Description: Gravimetric Vapour Sorption (GVS) data were collected using the following method: Approximately 10 mg of sample was placed into a wire-mesh vapour sorption balance pan and loaded into an ‘IgaSorp’ vapour sorption balance (Hiden Analytical Instruments). The sample was then dried by maintaining a 0% humidity environment until no further weight change was recorded. Subsequently, the sample was then subjected to a ramping profile from 0-90% RH at 10% RH increments, maintaining the sample at each step until equilibration had been attained (99% step completion). Upon reaching equilibration, the % RH within the apparatus was ramped to the next step and the equilibration procedure repeated. After completion of the sorption cycle, the sample was then dried using the same procedure. The weight change during the sorption/desorption cycles were then monitored, allowing for the hygroscopic nature of the sample to be determined.

[3] = Stability study, open vial, 40° C./75% RH, 7 and 28 days; format: physicochemical; details: for XRPD change on storage: open glass vial covered with tissue
Description: Further evidence of the suitability of the crystalline forms for pharmaceutical development is provided by the stability data disclosed herein. Form 1 of N-[(2,6-difluoro-3-methoxyphenyl)methyl]-3-(methoxymethyl)-1-({4-[(2-oxopyridin-1-yl)methyl]phenyl}methyl)pyrazole-4-carboxamide was stored at 40° C./75% RH in a open glass vial covered with tissue. […] (FIG. 3).
A sample of Form 1 was placed in an open vial covered with tissue in a dessicator under accelerated stability conditions of 40° C./75% RH. The sample was reanalysed after 7 days and 28 days by XRPD, STA and DSC using the same methods as described above.

[4] = Stability study, 40° C./75% RH 6 months and 25° C./60% RH 12 months, packed; format: physicochemical
Description: Yet further evidence of the suitability of the crystalline forms for pharmaceutical development is provided by additional stability data disclosed herein. Form 1 of N-[(2,6-difluoro-3-methoxyphenyl)methyl]-3-(methoxymethyl)-1-({4-[(2-oxopyridin-1-yl)methyl]phenyl}methyl)pyrazole-4-carboxamide was stored separately at two conditions of 40° C./75% RH for 6 months and 25° C./60% RH for 12 months packed into double polyethylene bags inside an HDPE bottle sealed with a screw cap closure.
Further samples of Form 1 were stored separately at two conditions of 40° C./75% RH for 6 months and 25° C./60% RH for 12 months packed into double polyethylene bags inside an HDPE bottle sealed with a screw cap closure. In this stability study X-Ray Powder Diffraction patterns were collected on a PANalytical X'Pert PRO diffractometer using CuKα radiation (45 kV, 40 mA), θ-θ goniometer, focusing mirror (Cu W/Si), divergence slit (½°), soller slits at both incident and diffracted beam (0.04 RAD), fixed mask (4 mm) and a PIXcel detector. The software used for data collection was X′Pert Data Collector, version 2.2f. The instrument was performance checked using a certified Standard Reference Material 640 d, Silicon Powder (NIST). XRPD patterns were acquired under ambient conditions via a transmission foil sample stage (polyimide—Kapton, TF-475, 7.5 μm thickness film). The specimen was examined with approximately 5 mg of the sample examined as dispensed onto the sample stage. The data collection range was 2.994-35.0056° […] with a step size of 0.0263° and a continuous scan speed of 0.202004° s^−1. No change in the XRPD diffractogram was observed after 6 months at 40° C./75% RH or after 12 months at 25° C./60% RH (FIG. 16).
Further tests on the samples of Form 1 stored at 25° C./60% RH and 40° C./75% RH were carried out as described in the table below.

postoperative bleeding = details: in vivo; cited from earlier work

Compound: N=C(N)c1ccc(CNC(=O)c2cnn(Cc3ccccc3)c2)cc1 [ASP-440]
Hematoma expansion (rats): reduced hematoma expansion
Oral availability [1]: poor oral availability

Hygroscopicity by GVS [2]: absence of significant hygroscopicity
%-Wt (dry basis), Adsorption ([2]; 0.007 %-RH): 0.000001 %-Wt
%-Wt (dry basis), Adsorption ([2]; 0.008 %-RH): 0.001373 %-Wt
%-Wt (dry basis), Desorption ([2]; 0.32 %-RH): 0.002745 %-Wt
%-Wt (dry basis), Desorption ([2]; 5 %-RH): 0.04664 %-Wt
%-Wt (dry basis), Adsorption ([2]; 10.023 %-RH): 0.07544 %-Wt
%-Wt (dry basis), Desorption ([2]; 14.995 %-RH): 0.09053 %-Wt
%-Wt (dry basis), Adsorption ([2]; 20.021 %-RH): 0.1619 %-Wt
%-Wt (dry basis), Desorption ([2]; 24.99 %-RH): 0.1934 %-Wt
%-Wt (dry basis), Adsorption ([2]; 30.013 %-RH): 0.2634 %-Wt
%-Wt (dry basis), Desorption ([2]; 34.982 %-RH): 0.2908 %-Wt
%-Wt (dry basis), Adsorption ([2]; 40.002 %-RH): 0.3978 %-Wt
%-Wt (dry basis), Desorption ([2]; 44.976 %-RH): 0.4554 %-Wt
%-Wt (dry basis), Adsorption ([2]; 50.002 %-RH): 0.5926 %-Wt
%-Wt (dry basis), Desorption ([2]; 55.026 %-RH): 0.6474 %-Wt
%-Wt (dry basis), Adsorption ([2]; 59.996 %-RH): 0.8573 %-Wt
%-Wt (dry basis), Desorption ([2]; 65.02 %-RH): 1.033 %-Wt
%-Wt (dry basis), Adsorption ([2]; 69.993 %-RH): 1.311 %-Wt
%-Wt (dry basis), Desorption ([2]; 75.011 %-RH): 1.653 %-Wt
%-Wt (dry basis), Adsorption ([2]; 79.987 %-RH): 2.17 %-Wt
%-Wt (dry basis), Desorption ([2]; 85.005 %-RH): 2.905 %-Wt
%-Wt (dry basis), Adsorption ([2]; 89.98 %-RH): 4.173 %-Wt
%-Wt (dry basis), Desorption ([2]; 89.98 %-RH): 4.173 %-Wt
XRPD change on storage ([3]; 40° C./75% RH, 7 days): no change
XRPD change on storage ([3]; 40° C./75% RH, 28 days): no change
DSC onset temperature ([3]; 40° C./75% RH, open vial, after 7 days): 155.2 °C
DSC onset temperature ([3]; 40° C./75% RH, open vial, after 28 days): 155.0 °C
DSC onset temperature ([3]; initial timepoint): 154.9 °C
Appearance ([4]; 25° C./60% RH, 12 months): As initial
Assay (% w/w on an anhydrous basis) ([4]; 25° C./60% RH, 12 months): 99.94 % w/w
Assay (% w/w “as-is”) ([4]; 25° C./60% RH, 12 months): 99.78 % w/w
DSC Onset ([4]; 25° C./60% RH, 12 months): Onset = 156.8 °C
DSC Peak ([4]; 25° C./60% RH, 12 months): Peak = 159.5 °C
Purity (% area) ([4]; 25° C./60% RH, 12 months): 100 % area
Water content (% w/w) ([4]; 25° C./60% RH, 12 months): 0.12 % w/w
XRPD ([4]; 25° C./60% RH, 12 months): no change; also recorded: As initial
Appearance ([4]; 40° C./75% RH, 6 months): As initial
Assay (% w/w on an anhydrous basis) ([4]; 40° C./75% RH, 6 months): 99.31 % w/w
Assay (% w/w “as-is”) ([4]; 40° C./75% RH, 6 months): 99.1 % w/w
DSC Onset ([4]; 40° C./75% RH, 6 months): Onset = 157.5 °C
DSC Peak ([4]; 40° C./75% RH, 6 months): Peak = 159.8 °C
Impurity Profile by HPLC (% area), Approx RRT 1.16 ([4]; 40° C./75% RH, 6 months): 0.03 % area
Purity (% area) ([4]; 40° C./75% RH, 6 months): 99.99 % area
Water content (% w/w) ([4]; 40° C./75% RH, 6 months): 0.17 % w/w
XRPD ([4]; 40° C./75% RH, 6 months): no change; also recorded: As initial
Appearance ([4]; Initial, 0 months): A white solid. Free from
Assay (% w/w on an anhydrous basis) ([4]; Initial, 0 months): 100.18 % w/w
DSC Onset ([4]; Initial, 0 months): Onset = 156.3 °C
DSC Peak ([4]; Initial, 0 months): Peak = 158.9 °C
Impurity Profile by HPLC (% area), Approx RRT 1.12 ([4]; Initial, 0 months): 0.03 % area
Purity (% area) ([4]; Initial, 0 months): 100 % area
Water content (% w/w) ([4]; Initial, 0 months): 0.19 % w/w
XRPD ([4]; Initial, 0 months): Conforms to Form 1
All measured parameters including Assay, Water Content, XRPD, DSC, Purity and Impurity Profile ([4]; over the course of the study (6 months 40° C./75% RH, 12 months 25° C./60% RH)): remained unchanged
Compound: COCc1nn(Cc2ccc(Cn3ccccc3=O)cc2)cc1C(=O)NCc1c(F)ccc(OC)c1F [Form 1, N-[(2,6-difluoro-3-methoxyphenyl)methyl]-3-(methoxymethyl)-1-({4-[(2-oxopyridin-1-yl)methyl]phenyl}methyl)pyrazole-4-carboxamide]
Reversibility of hydration (hysteresis) by GVS ([2]; FIG. 4): hydration is reversible (i.e. no significant hysteresis)
Increase in water content by GVS ([2]; normal conditions (up to 70% relative humidity)): only a relatively gradual increase in water content

%-Wt (dry basis), Desorption ([2]; 0.01 %-RH): 1.174 %-Wt
%-Wt (dry basis), Adsorption ([2]; 0.012 %-RH): 0.003304 %-Wt
%-Wt (dry basis), Adsorption ([2]; 0.013 %-RH): 0.004135 %-Wt
%-Wt (dry basis), Desorption ([2]; 5.002 %-RH): 2.121 %-Wt
%-Wt (dry basis), Adsorption ([2]; 10.022 %-RH): 0.3314 %-Wt
%-Wt (dry basis), Desorption ([2]; 15.039 %-RH): 3.537 %-Wt
%-Wt (dry basis), Adsorption ([2]; 20.014 %-RH): 0.7833 %-Wt
%-Wt (dry basis), Desorption ([2]; 25.192 %-RH): 5.219 %-Wt
%-Wt (dry basis), Adsorption ([2]; 30.014 %-RH): 1.246 %-Wt
%-Wt (dry basis), Desorption ([2]; 34.985 %-RH): 6.774 %-Wt
%-Wt (dry basis), Adsorption ([2]; 40.009 %-RH): 1.892 %-Wt
%-Wt (dry basis), Desorption ([2]; 44.978 %-RH): 7.808 %-Wt
%-Wt (dry basis), Adsorption ([2]; 49.999 %-RH): 2.49 %-Wt
%-Wt (dry basis), Desorption ([2]; 55.023 %-RH): 8.516 %-Wt
%-Wt (dry basis), Adsorption ([2]; 59.993 %-RH): 3.239 %-Wt
%-Wt (dry basis), Desorption ([2]; 65.019 %-RH): 9.185 %-Wt
%-Wt (dry basis), Adsorption ([2]; 69.992 %-RH): 4.507 %-Wt
%-Wt (dry basis), Desorption ([2]; 75.011 %-RH): 9.927 %-Wt
%-Wt (dry basis), Adsorption ([2]; 79.981 %-RH): 7.117 %-Wt
%-Wt (dry basis), Desorption ([2]; 85.009 %-RH): 10.43 %-Wt
%-Wt (dry basis), Adsorption ([2]; 89.98 %-RH): 10.71 %-Wt
%-Wt (dry basis), Desorption ([2]; 89.98 %-RH): 10.71 %-Wt
Compound: COCc1nn(Cc2ccc(Cn3ccccc3=O)cc2)cc1C(=O)NCc1c(F)ccc(OC)c1F [Form A, N-[(2,6-Difluoro-3-methoxyphenyl)methyl]-3-(methoxymethyl)-1-({4-[(2-oxopyridin-1-yl)methyl]phenyl}methyl)pyrazole-4-carboxamide]

Compound: aprotinin
Postoperative bleeding (postoperative bleeding): may be used to decrease postoperative bleeding

— patent publication US20200317639A1, “POLYMORPHS OF N-[(2,6-DIFLUORO-3-METHOXYPHENYL)METHYL]-3-(METHOXYMETHYL)-1-({4-[(2-OXOPYRIDIN-1YL)METHYL]PHENYL}METHYL)PYRAZOLE-4-CARBOXAMIDE” (KALVISTA PHARMACEUTICALS LIMITED, priority 2016, published 2020)
